The Kinase Knowledgebase extract (Sharma et al. 2016)
pIC50: −log10 of the molar value.

Key:
PIK3CB (Human) = PIK3CB (Human) (UniProt P42338); test: Inhibition of PIK3CB Kinase Activity
PIK3CA (human) = PIK3CA (human) (UniProt P42336); test: Inhibition of PIK3CA Kinase Activity
PIK3CD (Human) = PIK3CD (Human) (UniProt O00329); test: Inhibition of PIK3CD Kinase Activity
Sequence of PIK3CD (Human) (O00329 whole entry, looked up): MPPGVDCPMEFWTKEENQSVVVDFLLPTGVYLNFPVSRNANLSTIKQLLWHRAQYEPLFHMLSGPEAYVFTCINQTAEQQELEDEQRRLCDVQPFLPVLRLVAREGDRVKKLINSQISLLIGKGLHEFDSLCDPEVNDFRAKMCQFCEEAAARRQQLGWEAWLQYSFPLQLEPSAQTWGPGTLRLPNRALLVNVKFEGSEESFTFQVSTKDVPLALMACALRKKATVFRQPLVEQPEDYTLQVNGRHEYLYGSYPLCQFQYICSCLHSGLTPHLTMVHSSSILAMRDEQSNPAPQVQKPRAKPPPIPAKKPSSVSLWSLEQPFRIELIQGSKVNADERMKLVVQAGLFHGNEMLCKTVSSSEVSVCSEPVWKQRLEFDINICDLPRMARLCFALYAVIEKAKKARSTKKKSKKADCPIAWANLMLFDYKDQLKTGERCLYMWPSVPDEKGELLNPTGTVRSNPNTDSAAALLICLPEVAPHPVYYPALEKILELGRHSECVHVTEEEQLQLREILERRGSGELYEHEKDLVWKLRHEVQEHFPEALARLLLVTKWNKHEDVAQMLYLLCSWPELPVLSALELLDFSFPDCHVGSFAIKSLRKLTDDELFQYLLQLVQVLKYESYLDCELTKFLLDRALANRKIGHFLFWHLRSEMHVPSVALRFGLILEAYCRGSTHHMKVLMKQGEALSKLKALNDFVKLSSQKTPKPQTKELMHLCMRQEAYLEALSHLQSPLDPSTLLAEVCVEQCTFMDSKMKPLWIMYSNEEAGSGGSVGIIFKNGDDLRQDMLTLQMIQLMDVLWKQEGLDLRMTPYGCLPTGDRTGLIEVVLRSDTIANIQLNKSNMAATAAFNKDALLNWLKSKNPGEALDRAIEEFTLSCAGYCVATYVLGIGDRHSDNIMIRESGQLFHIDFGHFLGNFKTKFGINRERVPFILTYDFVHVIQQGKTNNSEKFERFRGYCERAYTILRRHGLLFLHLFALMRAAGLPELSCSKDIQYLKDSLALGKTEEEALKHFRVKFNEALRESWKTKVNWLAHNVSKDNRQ

Sequence of PIK3CA (human) (P42336 whole entry, looked up): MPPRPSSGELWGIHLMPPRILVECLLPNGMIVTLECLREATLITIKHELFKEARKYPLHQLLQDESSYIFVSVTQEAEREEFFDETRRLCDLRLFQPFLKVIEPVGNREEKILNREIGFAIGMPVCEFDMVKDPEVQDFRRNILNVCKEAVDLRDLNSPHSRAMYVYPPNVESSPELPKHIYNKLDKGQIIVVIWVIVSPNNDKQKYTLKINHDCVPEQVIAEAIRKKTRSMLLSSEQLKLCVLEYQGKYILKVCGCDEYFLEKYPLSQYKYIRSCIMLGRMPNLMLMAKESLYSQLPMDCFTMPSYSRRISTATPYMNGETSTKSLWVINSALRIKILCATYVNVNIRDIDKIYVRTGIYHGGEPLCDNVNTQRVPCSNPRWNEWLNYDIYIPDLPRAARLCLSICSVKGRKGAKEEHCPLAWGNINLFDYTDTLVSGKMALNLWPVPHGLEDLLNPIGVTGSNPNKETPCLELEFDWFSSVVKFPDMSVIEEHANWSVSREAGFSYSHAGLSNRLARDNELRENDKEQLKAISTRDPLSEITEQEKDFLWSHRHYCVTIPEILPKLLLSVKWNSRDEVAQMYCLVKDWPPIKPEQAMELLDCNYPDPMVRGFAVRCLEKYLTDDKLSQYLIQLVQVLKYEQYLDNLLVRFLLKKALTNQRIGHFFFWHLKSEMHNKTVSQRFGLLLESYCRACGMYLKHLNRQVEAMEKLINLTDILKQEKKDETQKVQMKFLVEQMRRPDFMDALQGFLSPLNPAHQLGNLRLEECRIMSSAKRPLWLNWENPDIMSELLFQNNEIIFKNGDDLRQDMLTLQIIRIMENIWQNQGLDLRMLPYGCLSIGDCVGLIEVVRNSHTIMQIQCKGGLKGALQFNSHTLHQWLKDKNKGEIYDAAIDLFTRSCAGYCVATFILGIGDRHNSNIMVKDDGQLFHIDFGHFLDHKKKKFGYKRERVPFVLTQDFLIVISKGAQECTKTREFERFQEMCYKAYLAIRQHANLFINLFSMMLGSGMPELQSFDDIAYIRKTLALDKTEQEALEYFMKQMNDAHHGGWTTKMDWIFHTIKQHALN
Sequence of PIK3CB (Human) (P42338 whole entry, looked up): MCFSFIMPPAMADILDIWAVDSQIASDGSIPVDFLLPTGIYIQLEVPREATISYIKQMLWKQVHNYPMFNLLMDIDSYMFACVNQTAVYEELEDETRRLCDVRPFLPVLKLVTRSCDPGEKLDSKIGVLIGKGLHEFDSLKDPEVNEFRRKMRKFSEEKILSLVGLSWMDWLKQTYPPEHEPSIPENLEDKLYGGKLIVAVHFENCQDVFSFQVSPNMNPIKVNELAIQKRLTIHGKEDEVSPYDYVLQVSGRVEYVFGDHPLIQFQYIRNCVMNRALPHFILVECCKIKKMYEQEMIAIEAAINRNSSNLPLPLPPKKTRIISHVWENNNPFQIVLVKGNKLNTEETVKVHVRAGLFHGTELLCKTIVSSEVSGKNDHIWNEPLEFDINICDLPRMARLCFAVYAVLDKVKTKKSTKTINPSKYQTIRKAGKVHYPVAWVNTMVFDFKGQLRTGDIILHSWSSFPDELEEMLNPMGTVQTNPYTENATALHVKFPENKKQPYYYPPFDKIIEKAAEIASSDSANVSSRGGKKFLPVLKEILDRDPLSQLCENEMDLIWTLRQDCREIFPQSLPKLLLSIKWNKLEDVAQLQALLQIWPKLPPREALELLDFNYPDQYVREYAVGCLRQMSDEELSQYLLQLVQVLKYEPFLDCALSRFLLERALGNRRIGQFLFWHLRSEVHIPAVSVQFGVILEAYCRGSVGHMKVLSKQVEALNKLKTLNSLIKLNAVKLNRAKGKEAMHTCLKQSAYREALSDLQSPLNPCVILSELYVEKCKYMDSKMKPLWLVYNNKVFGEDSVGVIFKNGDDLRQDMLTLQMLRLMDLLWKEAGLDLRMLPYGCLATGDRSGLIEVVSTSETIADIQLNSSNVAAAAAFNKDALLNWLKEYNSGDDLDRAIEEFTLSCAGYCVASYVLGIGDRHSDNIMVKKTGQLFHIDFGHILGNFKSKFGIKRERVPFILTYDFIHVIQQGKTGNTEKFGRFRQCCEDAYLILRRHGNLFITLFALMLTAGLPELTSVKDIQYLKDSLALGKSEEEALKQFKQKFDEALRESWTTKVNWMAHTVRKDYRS

Compound | pIC50 (PIK3CB (Human)) | pIC50 (PIK3CA (human)) | pIC50 (PIK3CD (Human))
Cc1ccc([N+](=O)[O-])cc1S(=O)(=O)N(C)N=Cc1cnn2ccccc12 | < 5.00 | – | –
Cc1ccc([N+](=O)[O-])cc1S(=O)(=O)c1nnc(-c2cnn3ccc(Br)cc23)o1 | – | 7.08 | 6.92

The remaining lines, values ahead:

pIC50 (PIK3CB (Human)) | pIC50 (PIK3CA (human)) | pIC50 (PIK3CD (Human)) | Compound
7.03 | – | – | CN(N=Cc1cnn2ccc(C#N)cc12)S(=O)(=O)c1cc([N+](=O)[O-])ccc1Cl
5.25 | 8.24 | 6.70 | CN(N=Cc1cnn2ccc(C#N)cc12)S(=O)(=O)c1cc([N+](=O)[O-])ccc1CCc1ccccn1
6.14 | 7.64 | 6.62 | CCCCCC.Cc1ccc([N+](=O)[O-])cc1S(=O)(=O)N(C)N=Cc1cnn2ccc(I)cc12
